Laboratory results reported in patent US20240350643A1, “PROTEIN DEGRADATION AGENT” (SUZHOU KINTOR PHARMACEUTICALS, INC., priority 2021, published 2024).

Columns and labels:
[1] = target: T1, c-Myc protein (Homo sapiens, UniProt P01106); assay: Ability of compounds to degrade c-Myc protein in HL60 cells (ELISA); type: cell-based; settings: HL-60, 1 μM compound, 24 h, read-out: HL60 cells Protein degradation rate (1 μM)
T1 construct: endogenous in cells; host or cells: HL60 cells
Protocol: I Activity test 1: Ability of compounds to degrade c-Myc protein in HL60 cells:
HL60 cells in the exponential growth phase were centrifuged, diluted with fresh culture mediums to 6×10^4 cells/100 μL and plated into a 96-well plate at 100 μL per well.
Preparation of test compounds: the compounds were weighed and diluted with DMSO to a 10 mM stock solution for later use. According to test requirements, drugs were diluted with cell culture mediums, with ten-fold dilutions starting from 10 μM, to achieve 3 concentration gradients: 10 μM, 1 μM and 100 NM; and finally, 1 μL of the drugs (DMSO content: 0.01%) were added to each well. For the blank control group, DMSO was also diluted with cell culture mediums, and finally, 1 μL of the control reagent (DMSO content: 0.01%) was added to each well.
3. Effect of drugs on c-Myc in cells as determined by ELISA
After 24 h of drug action, the culture mediums were removed, and the cells were washed once with ice-cold 1× PBS. PBS was removed, and 100 μL of ice-cold 1× Cell Lysis Buffer plus 1 mM phenylmethylsulfonyl fluoride (PMSF) was added to each well. The plate was incubated on ice for 20 min and centrifuged at 4000 RPM at 4° C. for 10 min for later use.
4. Reagent and antibody preparation in ELISA kit 1× wash buffer • 1). 16 mL of ELISA wash buffer concentrate (25×) was diluted with 384 mL of deionized water or distilled water, labeled as 1× Wash Buffer. • 2). The concentrate and 1× Wash Buffer were stored in the refrigerator. The diluted buffer was used within 14 days.
The cell extraction buffer contains 10 mM Tris (pH 7.4), 100 mM NaCl, 1 mM EDTA, 1 mM EGTA, 1 mM NaF, 20 mM Na4P2O7 2 mM Na3VO4. 1% Triton™ ×-100, 10% glycerol, 0.1% SDS and 0.5% deoxycholate. Immediately before use, PMSF (0.3 M stock solution in DMSO) was added to the buffer to a final concentration of 1 mM.
Standard curve configuration: The standard liquid was diluted using glass or plastic tubes. • 1). Huc-Myc (total) standard liquid (Invitrogen, KH02041) was reconstituted with a standard dilution to 1000 pg/mL. Refer to the standard vial label for instructions. The contents were gently swirled or mixed and then allowed to stand for 10 minutes to ensure complete reconstitution, labeled as 1,000 pg/mL human c-Myc. The standard liquid was used within 1 hour after reconstitution. • 2). 250 μL of standard dilution buffers were added to 7 test tubes respectively labeled 500, 250, 125, 62.5, 31.25, 15,63 and 0 pg/mL. • 3). 250 μL of the 1000 pg/ml standard stock solution was added to the first EP tube to a concentration of 500 pg/mL, vortexed and mixed evenly. 250 μL of the resulting mixture was further pipetted and added to the second EP tube to a concentration of 250 pg/mL. Serial dilutions were performed until the sixth EP tube with a concentration of 15.63 pg/mL. Dilution was not performed on the last EP tube. • 4). The remaining reconstituted standard liquid should be discarded, or aliquoted and frozen at −80° C. for further use. Standards can be frozen and thawed only once without losing immunoreactivity.
1× anti-rabbit IgG HRP solution: 1× anti-rabbit IgG HRP solution was prepared within 15 minutes of use. The anti-rabbit IgG HRP (100×) contained 50% viscous glycerol. To ensure accurate dilutions, the following operations were carried out: 1 For each 8-well test strip used in the test, 10 μl, of the anti-rabbit IgG -IRP (100×) solution was pipetted, wherein the pipette tip was wiped with clean absorbent paper to remove excess solutions, and then the solution was dispensed into a test tube containing 1 mL of HRP diluent and mixed thoroughly. 2. The unused anti-rabbit IgG HRP (100×) was placed in the refrigerator for storage.
50 μL of the standard liquid was added to the appropriate wells and not added to the blank control well. Except for the blank control well, 50 μL of Hu c-Myc (total) detection antibody solution was added to each well and mixed by tapping the side face of the plate. […]

[2] = system: HL60 cells; assay: Anti-proliferation ability of compounds on HL60 cells (CTG); type: cell-based, human; settings: Homo sapiens, HL-60, 72 h, 3 days, CellTiter-Glo, read-out: HL60 cells Proliferation inhibitory activity
Protocol: II. Activity test 2: Anti-proliferation ability of compounds on HL60 cells: 1 Cell plating
HL60 cells in the logarithmic growth phase were counted and plated evenly in a 96-well transparent bottom white plate at 20000 cells per well and 100 μL per well.
A certain amount of the compounds was weighed and diluted with DMSO to a 10 mM stock solution. The culture mediums corresponding to the cells were taken, and the drugs were diluted to the concentration required by the test, shaken gently and mixed evenly. 50 μl of the gradient dilution of the diluted compound was added to each well of the plated cells, and 50 μL of 0.1% DMSO was added to the control group. The plate was shaken gently, mixed evenly and incubated in a cell culture incubator for 3 days.
• 3.1 The CellTiter-GLo™ (CTG) reagent was taken in advance from the −20° C. refrigerator and equilibrated to room temperature in the dark (white bottle+brown bottle, 1:1 mixing evenly into the brown bottle, for later use). • 3.2 The 96-well plate was taken out and inspected under a microscope for growth situation. • 3.3 The bottom of the 96-well plate was tagged with white paper, and then the plate was wrapped with tin foil paper, shaken at 37° C. at 300 r for 10 min and mixed evenly. • 3.4 50 ul of CTG detection reagent was added to each well, Luminescence signal was detected using a microplate reader, and the inhibition rate was calculated. IC50 values of the compounds were calculated by XLfit software to evaluate the proliferation inhibitory activity on HL60 cells.

T1 sequence (P01106 whole entry): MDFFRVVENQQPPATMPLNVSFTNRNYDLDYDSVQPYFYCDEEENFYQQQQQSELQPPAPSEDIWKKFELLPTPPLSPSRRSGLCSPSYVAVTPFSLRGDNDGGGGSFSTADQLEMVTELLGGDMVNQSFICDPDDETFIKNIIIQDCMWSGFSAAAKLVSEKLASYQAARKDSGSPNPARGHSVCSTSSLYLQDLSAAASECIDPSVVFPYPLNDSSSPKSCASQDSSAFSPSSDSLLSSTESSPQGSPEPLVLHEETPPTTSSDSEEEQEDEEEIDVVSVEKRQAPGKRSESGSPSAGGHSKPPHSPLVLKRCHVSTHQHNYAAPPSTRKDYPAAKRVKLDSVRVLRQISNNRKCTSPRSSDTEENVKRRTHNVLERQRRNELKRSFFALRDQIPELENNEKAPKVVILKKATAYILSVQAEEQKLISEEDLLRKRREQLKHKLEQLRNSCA

| Structure (SMILES) | inhibition at 1 µM [1] [%] | IC50 [2] [nM] |
| --- | --- | --- |
| O=C(Cc1cccc2ccccc12)NCCCCCCCCNc1ccc2c(c1)C(=O)N(C1CCC(=O)NC1=O)C2=O (stereo not shown) [A15] | 60 to 90 | 16.3 ± 3.3 |
| O=C(Cn1c2ccccc2c2cccnc21)NCCCCCCCCNc1ccc2c(c1)C(=O)N(C1CCC(=O)NC1=O)C2=O (stereo not shown) [A16] | 60 to 90 | 21.2 ± 6.1 |
| O=C(Cc1cccc2ccccc12)NCCCCCCCCOc1ccc2c(c1)C(=O)N(C1CCC(=O)NC1=O)C2=O (stereo not shown) [A17] | 30 to 60 | 3590 ± 1180 |
| O=C(Cn1c2ccccc2c2cccnc21)NCCCCCCCCOc1ccc2c(c1)C(=O)N(C1CCC(=O)NC1=O)C2=O (stereo not shown) [A18] | 30 to 60 | 1220 ± 217 |
| O=C(Cc1cccc2ccccc12)NCCCCCCCCCc1ccc2c(c1)C(=O)N(C1CCC(=O)NC1=O)C2=O (stereo not shown) [A19] | 60 to 90 | 585 ± 79.8 |
| O=C(Cn1c2ccccc2c2cccnc21)NCCCCCCCCCc1ccc2c(c1)C(=O)N(C1CCC(=O)NC1=O)C2=O (stereo not shown) [A20] | 60 to 90 | 490 ± 64.9 |
| O=C1CCC(N2C(=O)c3ccc(CCCCCCC(=O)N(Cc4ccccc4)Cc4ccccc4)cc3C2=O)C(=O)N1 (stereo not shown) [A21] | 10 to 30 | 178 ± 68.4 |
| O=C(Cc1cccc2ccccc12)NC[C@H]1CC[C@H](CNC(=O)c2ccc3c(c2)C(=O)N(C2CCC(=O)NC2=O)C3=O)CC1 (stereo partly shown) [A22] | 30 to 60 | 29.2 ± 14.4 |
| O=C(Cn1c2ccccc2c2ccccc21)NC[C@H]1CC[C@H](CNC(=O)c2ccc3c(c2)C(=O)N(C2CCC(=O)NC2=O)C3=O)CC1 (stereo partly shown) [A23] | 30 to 60 | 55.4 ± 6.7 |
| O=C(Cn1c2ccccc2c2cccnc21)NC[C@H]1CC[C@H](CNC(=O)c2ccc3c(c2)C(=O)N(C2CCC(=O)NC2=O)C3=O)CC1 (stereo partly shown) [A24] | 30 to 60 | 103 ± 53.2 |
| O=C(Cn1c2ccccc2c2ccncc21)NC[C@H]1CC[C@H](CNC(=O)c2ccc3c(c2)C(=O)N(C2CCC(=O)NC2=O)C3=O)CC1 (stereo partly shown) [A25] | 30 to 60 | 270 ± 126 |
| CC(C)(C)OC(=O)NC[C@H]1CC[C@H](CNC(=O)c2ccc3c(c2)C(=O)N(C2CCC(=O)NC2=O)C3=O)CC1 (stereo partly shown) [A26] | 30 to 60 | 2820 ± 1060 |
| O=C(Cc1cccc2ccccc12)NC[C@H]1CC[C@H](CNc2ccc3c(c2)C(=O)N(C2CCC(=O)NC2=O)C3=O)CC1 (stereo partly shown) [A27] | 10 to 30 | 6800 ± 1540 |
| CC(C)(C)OC(=O)NC[C@H]1CC[C@H](CNc2ccc3c(c2)C(=O)N(C2CCC(=O)NC2=O)C3=O)CC1 (stereo partly shown) [A28] | 60 to 90 | 5060 ± 137 |
| O=C(Cc1cccc2ccccc12)NCc1ccc(CNC(=O)c2ccc3c(c2)C(=O)N(C2CCC(=O)NC2=O)C3=O)cc1 (stereo not shown) [A29] | 60 to 90 | 30.1 ± 21.1 |
| O=C(Cn1c2ccccc2c2cccnc21)NCc1ccc(CNC(=O)c2ccc3c(c2)C(=O)N(C2CCC(=O)NC2=O)C3=O)cc1 (stereo not shown) [A30] | 60 to 90 | 18 ± 11.5 |
| CC(C)(C(=O)NCc1ccc(CNC(=O)c2ccc3c(c2)C(=O)N(C2CCC(=O)NC2=O)C3=O)cc1)c1cccc2ccccc12 (stereo not shown) [A31] | 60 to 90 | 1360 |
| CC(C)(C(=O)NCc1ccc(CNC(=O)c2ccc3c(c2)C(=O)N(C2CCC(=O)NC2=O)C3=O)cc1)n1c2ccccc2c2cccnc21 (stereo not shown) [A32] | 60 to 90 | 433 ± 166 |

| Structure (SMILES) | inhibition at 1 µM [1] [%] | IC50 [2] [nM] |
| --- | --- | --- |
| O=C(Cc1nccc2ccccc12)NCc1ccc(CNC(=O)c2ccc3c(c2)C(=O)N(C2CCC(=O)NC2=O)C3=O)cc1 (stereo not shown) [A33] | 60 to 90 | 9.1 ± 0.3 |
| O=C(Cc1cccc2cccnc12)NCc1ccc(CNC(=O)c2ccc3c(c2)C(=O)N(C2CCC(=O)NC2=O)C3=O)cc1 (stereo not shown) [A34] | 60 to 90 | 18 ± 6 |
| O=C(Cc1c(F)ccc2ccccc12)NCc1ccc(CNC(=O)c2ccc3c(c2)C(=O)N(C2CCC(=O)NC2=O)C3=O)cc1 (stereo not shown) [A35] | 60 to 90 | 10.9 ± 4.8 |
| O=C(Cc1cccc2ccc(F)cc12)NCc1ccc(CNC(=O)c2ccc3c(c2)C(=O)N(C2CCC(=O)NC2=O)C3=O)cc1 (stereo not shown) [A36] | 30 to 60 | 13.4 ± 3.3 |
| O=C(Cc1cccc2ccccc12)NCc1cccc(CNC(=O)c2ccc3c(c2)C(=O)N(C2CCC(=O)NC2=O)C3=O)c1 (stereo not shown) [A37] | 30 to 60 | 314 |
| O=C(Cn1c2ccccc2c2cccnc21)NCc1cccc(CNC(=O)c2ccc3c(c2)C(=O)N(C2CCC(=O)NC2=O)C3=O)c1 (stereo not shown) [A38] | 30 to 60 | 66.2 ± 14.6 |
| O=C(Cc1cccc2ccccc12)NCCc1ccc(NC(=O)c2ccc3c(c2)C(=O)N(C2CCC(=O)NC2=O)C3=O)cc1 (stereo not shown) [A39] | 60 to 90 | 979 ± 80.2 |
| O=C(Cc1cccc2ccccc12)NCCc1ccc(CNC(=O)c2ccc3c(c2)C(=O)N(C2CCC(=O)NC2=O)C3=O)cc1 (stereo not shown) [A40] | 60 to 90 | 306 ± 73.8 |
| O=C(Cn1c2ccccc2c2cccnc21)NCCc1ccc(CNC(=O)c2ccc3c(c2)C(=O)N(C2CCC(=O)NC2=O)C3=O)cc1 (stereo not shown) [A41] | 60 to 90 | 155 ± 8.9 |
| O=C(Cc1cccc2ccccc12)NCc1ccc(CCNC(=O)c2ccc3c(c2)C(=O)N(C2CCC(=O)NC2=O)C3=O)cc1 (stereo not shown) [A42] | 60 to 90 | 3640 ± 895 |
| O=C(Cn1c2ccccc2c2cccnc21)NCc1ccc(CCNC(=O)c2ccc3c(c2)C(=O)N(C2CCC(=O)NC2=O)C3=O)cc1 (stereo not shown) [A43] | 60 to 90 | 282 ± 27.5 |
| O=C1CCC(N2C(=O)c3ccc(C(=O)NCc4ccc(NC(=O)Cc5cccc6ccccc56)cc4)cc3C2=O)C(=O)N1 (stereo not shown) [A44] | 30 to 60 | 5400 ± 683 |
| O=C1CCC(N2C(=O)c3ccc(C(=O)NCc4ccc(CNC(=O)Nc5cccc6ccccc56)cc4)cc3C2=O)C(=O)N1 (stereo not shown) [A45] | 60 to 90 | 61.6 ± 21 |
| O=C1CCC(N2C(=O)c3ccc(C(=O)NC[C@H]4CC[C@H](CNC(=O)Nc5cccc6ccccc56)CC4)cc3C2=O)C(=O)N1 (stereo partly shown) [A46] | 60 to 90 | 50.2 ± 14 |
| O=C1CCC(N2C(=O)c3ccc(C(=O)NC[C@H]4CC[C@H](CNC(=O)Nc5cccc6cccnc56)CC4)cc3C2=O)C(=O)N1 (stereo partly shown) [A47] | 60 to 90 | 1040 ± 171 |
| O=C1CCC(N2C(=O)c3ccc(C(=O)NC[C@H]4CC[C@H](CNC(=O)Nc5cccc6ccncc56)CC4)cc3C2=O)C(=O)N1 (stereo partly shown) [A48] | 60 to 90 | 3579 ± 29 |
| O=C1CCC(N2C(=O)c3ccc(C(=O)NC[C@H]4CC[C@H](CNC(=O)Nc5cccc6cnccc56)CC4)cc3C2=O)C(=O)N1 (stereo partly shown) [A49] | 60 to 90 | 6820 ± 1630 |
